These results are taken from ChEMBL document CHEMBL3612018, “Discovery of a Potent and Selective ROMK Inhibitor with Pharmacokinetic Properties Suitable for Preclinical Evaluation” (ACS Med Chem Lett, 2015).

For series [1], the species on record is Rattus norvegicus. The following applies: in vivo, iv, 1 mg/kg.
Series [2] is filed under the species Rattus norvegicus. The following applies: in vivo, po, 2 mg/kg.
Series [3] is filed under the species Rattus norvegicus. The following applies: in vivo, iv, 0.5 mg/kg.
The nature of series [4]: in vivo. The following applies: Sprague-Dawley, rat, po, 2 mg/kg.
A short description of series [5]: in vivo. The following applies: Sprague-Dawley, rat.
The nature of series [6]: in vivo. The following applies: Sprague-Dawley, rat. The source holds these as a separate data set.

Usually clearance stands for the rate of elimination divided by the concentration. On to `O=C1OCc2cc(CCN3CCN(C(=O)Cc4ccc(-n5cnnn5)cc4)CC3)ccc21`, for which the clearance in series [1] stood at 40 mL/min/kg. In series [2], the AUC/dose was 0.34 µM·kg·h/mg.
What is called bioavailability is the share of a dose that reaches the circulation, judged against a reference dose that is usually intravenous. A low value points to little systemic uptake. For orientation: half-life means the time needed for the level to fall by half in the phase considered. High values mean slow decline, low ones rapid decline. As for `COc1cc(CCN2CCN(CC(O)c3ccc4c(c3C)COC4=O)CC2)ccc1C#N` (stereo not drawn), the AUC/dose in series [2] was found to be 0.46 µM·kg·h/mg. The clearance in series [3] was 33 mL/min/kg. In series [4], this compound returned a bioavailability of 39%. Further, the half-life in series [5] is 0.83 h.
For `COc1cc(C(O)CN2CCN(CCc3ccc4c(c3C)COC4=O)CC2)ccc1C#N` (stereo not drawn), the AUC/dose in series [2] came out at 0.35 µM·kg·h/mg. Besides, the clearance in series [3] is 40 mL/min/kg. Besides, the bioavailability in series [4] stood at 37%. The compound further gave a half-life in series [5] of 1.3 h.
The like results for `COc1cc(C(O)CN2CCN(CCc3ccc4c(c3C)COC4=O)CC2)ncc1C#N` (stereo not drawn) were, in that order, 0.74 µM·kg·h/mg, 40 mL/min/kg, 78% and 1.5 h.
With `Cc1nc(C(O)CN2CCN(C[C@H](O)c3ccc4c(c3C)COC4=O)CC2)ccc1C#N` (stereo in doubt; 35), in series [1], the clearance was found to be 25 mL/min/kg. Moreover, in series [2], the AUC/dose worked out at 1.3 µM·kg·h/mg. Further, the bioavailability in series [4] turned out to be 81%. In addition, the half-life in series [6] was 1.4 h.
